The test system of series [1] is pression artérielle et membrane nictitante. The series is described as follows: Adrenolytic activity in the anaesthetised cat. Format: in vivo. To be noted: chat. The text has this:
(§1) Les propriétés adrénolytiques ont été recherchées chez le chat et le chien anesthésiés vis-à-vis de la pression artérielle et de la membrane nictitante (chat).

Series [2] deals with agrégation à l'ADP, au collagène et à l'ADP + adrénaline. The series is described as follows: In vitro aggregation induced by ADP, collagen and ADP + adrenaline. Format: cell-based. The text has this:
Les tétrahydroalstonates de sodium, de créatinol et d'imidazole sont actifs in vitro vis-à-vis de l'agrégation à l'ADP, au collagène et à l'ADP + adrénaline; les concentrations actives.variant de 1.10^-3M à 1.10^-5M selon les tests et les composés particuliers répondant à la formule générale I.

Series [3] in a line: Solubility.
Series [4] relates to excrétion urinaire provoquée par l'adrénaline. To be noted: rat; for augmentation de l'excrétion urinaire provoquée par l'adrénaline: 100 mg par voie orale; for absorption par voie orale: in vivo, po.
Series [5] in a line: Acute toxicity, intravenous route. Format: in vivo. To be noted: mouse, in vivo, iv; souris, voie intraveineuse; read-out: DL 50 (the source's name). Here is the method:
(§2) Par voie injectable les composés de formule I ont été administrés jusqu'à 100 mg/kg, sans provoquer de mortalité chez le rat. A titre d'exemple, on précisera que la DL 50 par voie intraveineuse chez la souris est de 330 mg/kg pour le tétrahydroalstonate de sodium. La toxicité du tétrahydroalstonate de créatinol chez la souris,par voie intraveineuse calculée selon la méthode de Kärber est de 450 mg/kg.

For series [6], the system named is pression artérielle. The series is described as follows: Adrenolytic activity and arterial pressure in the anaesthetised dog. The class given is in vivo. The settings on record: chien, 0,1 à 10 mg/kg par voie intraveineuse. Here is the method: as §1
Cette activité ne s'accompagne pas de diminution de la force de contraction cardiaque. L'inversion de l'hypertension à l'adrénaline commence dès la dose de 0,05 mg/kg.

Series [7] deals with souris. Put plainly: Acute toxicity, intravenous route. The class given is in vivo. The settings on record: voie intraveineuse, méthode de Kärber. As to the method: as §2

For the compound `COC(=O)C1=COC(C)C2CN3CCc4c([nH]c5ccccc45)C3CC12` (stereo not drawn) [raubasine, reference compound], in series [1], the “dose pour laquelle l'adrénolyse est parfaitement nette” value is recorded as 2 mg/kg.
As a reminder, the solubility is how much of the substance goes into solution per volume. Consider `CC1OC=C(C(=O)O)C2CC3c4[nH]c5ccccc5c4CCN3CC12` (stereo not drawn) [tétrahydroalstonate de sodium, Tétrahydroalstonate de sodium], for which the “activité adrénolytique comparée à la raubasine et à la tétrahydroalstonine” value in series [1] (voie injectable) is reported as “très nettement supérieure à celle de la raubasine et de la tétrahydroalstonine”. In series [2], the “agrégation à l'ADP” value is listed as “actifs”, the “agrégation à l'ADP + adrénaline” value is reported as “actifs” and the “agrégation au collagène” value is listed as “actifs”. Further, the solubility in series [3] (95% ethanol, organic solvent or mixture) was found to be 70 mg/mL. Moreover, the solubility in series [3] (chloroform, organic solvent or mixture) was found to be 35 mg/mL. This compound also displayed a solubility in series [3] (water) of 90 mg/mL. In series [4], the “augmentation de l'excrétion urinaire provoquée par l'adrénaline” value is “réduisent l'augmentation de l'excrétion urinaire provoquée par l'adrénaline” and the “absorption par voie orale” value was “bonne absorption par voie orale”. Besides, the LD50 in series [5] is 330 mg/kg. Further, the “pression artérielle” value in series [6] was “diminution progressive de la pression artérielle proportionnelle à la dose”.
With `COC(=O)C1=COC(C)C2CN3CCc4c([nH]c5ccccc45)C3CC12` (stereo not drawn) [tétrahydroalstonine, reference compound], the “dose pour laquelle l'adrénolyse est parfaitement nette” value in series [1] is reported as 0,5 mg/kg.
With Tétrahydroalstonate de créatinol, in series [1] (voie injectable), the “activité adrénolytique comparée à la raubasine et à la tétrahydroalstonine” value is listed as “très nettement supérieure à celle de la raubasine et de la tétrahydroalstonine” and the “dose à laquelle les composés agissent (activité adrénolytique)” value is 0,1 mg/kg. Moreover, in series [2], the “agrégation à l'ADP” value was “actifs”, the “agrégation à l'ADP + adrénaline” value is listed as “actifs” and the “agrégation au collagène” value is reported as “actifs”. Also, for the setting “95% ethanol”, the “Solubilités : éthanol à 95” value was 5%. For the same compound, under “water”, the “Solubilités : eau” value is reported as 5%. For the same compound, in series [4], the “augmentation de l'excrétion urinaire provoquée par l'adrénaline” value is recorded as “réduisent l'augmentation de l'excrétion urinaire provoquée par l'adrénaline” and the “absorption par voie orale” value was “bonne absorption par voie orale”. In series [7], this compound registered a toxicité of 450 mg/kg. Also, in series [6], the “pression artérielle” value is “diminution progressive de la pression artérielle proportionnelle à la dose”.
Turning to tétrahydroalstonate d'imidazole, in series [2], the “agrégation à l'ADP” value is given as “actifs”, the “agrégation à l'ADP + adrénaline” value was “actifs” and the “agrégation au collagène” value is “actifs”.

The values are drawn from patent EP0017525A1, “Derivatives of tetrahydroalstonine, their preparation and their application as medicaments” (PIERRE FABRE S.A., priority 1979, dated 1980).
